Measured values as given in patent publication US4777250A, “Chymotrypsin model” (Northwestern University, priority 1986, dated 1988).

How the values were obtained:
[1] = Hydrolysis of esters by artificial chymotrypsin (Lineweaver-Burk); type: biochemical; settings: substrate m-t-butylphenyl acetate
Text: The chymotrypsin model was examined for its catalytic activity in ester hydrolysis.
In FIG. 2 plot A represents the hydrolysis of p-nitrophenyl acetate by chymotrypsin and plot B represents the hydrolysis of m-t-butylphenyl acetate by the miniature organic model of chymotrypsin. [EA ]=1×10^-5 M; [EB ]=3×10^-5 M.
FIG. 3 depicts the relative stability of both β-benzyme/m-t-butylphenyl acetate and α-chymotrypsin/p-nitrophenyl acetate (O) at elevated temperatures. The real enzyme has 245 amino acids whose conformation can be changed by disrupting hydrogen bonds by elevated temperature. In contrast, the artificial chymotrypsin has no amino acids. Abbreviations are explained by the equation [formula] The stability was obtained by determining the catalytic rate constant at various temperatures at pH 8.0 for chymotrypsin, using 400 nm with a Varian 200 spectrophotometer. β-benzyme activity for the artificial enzyme was determned at its optimum pH 10.7 and 288 nm.

[2] = tested on: CC(=O)Oc1ccc([N+](=O)[O-])cc1; test: purified protein, by the assay type; settings: other: pH 8.0 (optimum pH), substrate p-nitrophenyl acetate, error limit ± 10%

Row | Km ([1]; pH 10.7 (optimum pH), error limit ± 10%) | kcat/Km ([1]; pH 10.7) | Compound | kcat ([1]; pH 10.7 (optimum pH), error limit ± 5%) | Km [2] | kcat [2] | kcat/Km [2]
1 | 133 µM | 210 M⁻¹ s⁻¹ | CC(=O)Oc1cccc(C(C)(C)C)c1 [m-t-butylphenyl acetate] | 0.028 s⁻¹ |  |  | 
2 |  |  | chymotrypsin (real enzyme, α-chymotrypsin) (Bos taurus) |  | 40 µM | 0.011 s⁻¹ | 275 M⁻¹ s⁻¹
